Results reported in patent US10689367B2, “Triazole pyridyl compounds as agonists of the APJ receptor” (AMGEN INC., priority 2016, dated 2020).

The compounds below were run against human APJ receptor (Homo sapiens (Human), UniProt P35414) (assay: [35S]GTPγS binding assay on membranes from CHO cells stably expressing human APJ receptor). Settings: membranes of CHO cells stably expressing human APJ receptor, read-out: Activity hAPJ SPA EC50 IP.
Chain of human APJ receptor (P35414 whole entry): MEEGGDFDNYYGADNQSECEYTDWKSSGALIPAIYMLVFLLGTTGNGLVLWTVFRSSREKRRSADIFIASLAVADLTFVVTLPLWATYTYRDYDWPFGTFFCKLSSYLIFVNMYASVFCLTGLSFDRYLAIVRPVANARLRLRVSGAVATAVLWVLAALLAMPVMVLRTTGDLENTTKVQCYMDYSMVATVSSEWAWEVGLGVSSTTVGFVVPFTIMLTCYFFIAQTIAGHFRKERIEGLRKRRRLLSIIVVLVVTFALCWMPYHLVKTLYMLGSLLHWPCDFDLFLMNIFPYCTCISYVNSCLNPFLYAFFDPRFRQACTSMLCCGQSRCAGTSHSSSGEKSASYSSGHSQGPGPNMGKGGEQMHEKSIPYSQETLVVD
Format: biochemical
Description: The human APJ receptor was cloned by polymerase chain reaction and the gene encoding the receptor was subcloned in pFLAG-CMV™-3 expression vector (Sigma, Saint Louis, Mo. USA) in-house at Amgen. A GTPγS binding assay was performed on membranes prepared from CHO cells stably expressing human APJ receptor. The optimum experimental conditions for the concentrations of GDP, MgCl2, and NaCl in the assay buffer were initially determined. […] Incubation was at RT for 90 min and the microplate was read using a ViewLux™ ultra HTS Microplate Imager (PerkinElmer, Inc.). All the results presented are means of several independent experiments and analyzed by non-linear regression methods using the commercially available program Prism (GraphPad, San Diego, Calif.) providing the EC50 values detailed in Table 27.
CO[C@H](c1ncc(Cl)cn1)[C@H](C)S(=O)(=O)Nc1nnc(-c2ccccn2)n1C(C1CC1)C1CC1 [Example 46.0] showed an EC50 of 0.33 nM.
CC[C@H](c1c(C)noc1C)n1c(NS(=O)(=O)[C@@H](C)[C@@H](OC(C)C)c2ncc(C)cn2)nnc1-c1cccc(OC)n1 (mixture of isomers) [Example 209.0, (1S,2S)-N-(4-((1R)-1-(3,5-dimethyl-1,2-oxazol-4-yl)propyl)-5-(6-methoxy-2-pyridinyl)-4H-1,2,4-triazol-3-yl)-1-(5-methyl-2-pyrimidinyl)-1-(2-propanyloxy)-2-propanesulfonamide and (1S,2S)-N-(4-((1S)-1-(3,5-dimethyl-1,2-oxazol-4-yl)propyl)-5-(6-methoxy-2-pyridinyl)-4H-1,2,4-triazol-3-yl)-1-(5-methyl-2-pyrimidinyl)-1-(2-propanyloxy)-2-propanesulfonamide] showed an EC50 of 14 nM.
For COCC(COC)n1c(NS(=O)(=O)[C@@H](C)[C@H](OC)c2ncc(C)cn2)nnc1-c1ccccn1 [Example 8.0, (1R,2S)-N-(4-(1,3-dimethoxy-2-propanyl)-5-(2-pyridinyl)-4H-1,2,4-triazol-3-yl)-1-methoxy-1-(5-methyl-2-pyrimidinyl)-2-propanesulfonamide], the EC50 was 19 nM.
COc1cccc(-c2nnc(NS(=O)(=O)[C@@H](C)[C@H](OC)c3ncc(Cl)cn3)n2CCc2ccc(F)cc2)n1 [Example 74.0] showed an EC50 of 31 nM.
Work on COc1cccc(-c2nnc(NS(=O)(=O)[C@@H](C)[C@H](OC)c3ncc(Cl)cn3)n2[C@@H]2CCC23CCC3)n1 (single isomer, unassigned) [Example 93.0] yielded an EC50 of 2.3 nM.
CCc1noc(C)c1Cn1c(NS(=O)(=O)[C@@H](C)[C@@H](OC(C)C)c2ncc(C)cn2)nnc1-c1cccc(OC)n1 [Example 194.0, (1S,2S)-N-(4-((3-ethyl-5-methyl-1,2-oxazol-4-yl)methyl)-5-(6-methoxy-2-pyridinyl)-4H-1,2,4-triazol-3-yl)-1-(5-methyl-2-pyrimidinyl)-1-(2-propanyloxy)-2-propanesulfonamide] was tested, and the EC50 was 56 nM.
Work on COc1cccc(-c2nnc(NS(=O)(=O)[C@@H](C)[C@H](OC)c3ncc(Cl)cn3)n2CCSC)n1 [Example 26.0, (1R,2S)-1-(5-chloropyrimidin-2-yl)-1-methoxy-N-(5-(6-methoxypyridin-2-yl)-4-(2-(methylthio)ethyl)-4H-1,2,4-triazol-3-yl)propane-2-sulfonamide] yielded an EC50 of 12 nM.
In the case of CC[C@@H](c1c(C)noc1C)n1c(NS(=O)(=O)[C@@H](C)[C@H](OC)c2cnc(C)cn2)nnc1-c1cccc(OC)n1 (single isomer, unassigned) [Example 223.0, (1R,2S)-N-(4-((1R)-1-(3,5-dimethyl-1,2-oxazol-4-yl)propyl)-5-(6-methoxy-2-pyridinyl)-4H-1,2,4-triazol-3-yl)-1-methoxy-1-(5-methyl-2-pyrazinyl)-2-propanesulfonamide or (1R,2S)-N-(4-((1S)-1-(3,5-dimethyl-1,2-oxazol-4-yl)propyl)-5-(6-methoxy-2-pyridinyl)-4H-1,2,4-triazol-3-yl)-1-methoxy-1-(5-methyl-2-pyrazinyl)-2-propanesulfonamide], the EC50 is reported as 32 nM.
CC[C@@H](c1conc1C)n1c(NS(=O)(=O)[C@@H](C)[C@H](C)c2ncc(Cl)cn2)nnc1-c1cccc(OC)n1 (single isomer, unassigned) [Example 232.0, (2S,3R)-3-(5-chloro-2-pyrimidinyl)-N-(5-(6-methoxy-2-pyridinyl)-4-((1R)-1-(3-methyl-1,2-oxazol-4-yl)propyl)-4H-1,2,4-triazol-3-yl)-2-butanesulfonamide or (2S,3R)-3-(5-chloro-2-pyrimidinyl)-N-(5-(6-methoxy-2-pyridinyl)-4-((1S)-1-(3-methyl-1,2-oxazol-4-yl)propyl)-4H-1,2,4-triazol-3-yl)-2-butanesulfonamide] showed an EC50 of 1.5 nM.
CCC(CC)n1c(NS(=O)(=O)[C@@H](C)[C@H](OC)c2ncc(Cl)cn2)nnc1-c1ccccn1 [Example 47.0] showed an EC50 of 5.3 nM.
For COc1cccc(-c2nnc(NS(=O)(=O)[C@@H](C)[C@H](OC)c3ncc(Cl)cn3)n2C23CC(C2)C3)n1 [Example 263.0, (1R,2S)—N-(4-(Bicyclo[1.1.1]pentan-1-yl)-5-(6-methoxypyridin-2-yl)-4H-1,2,4-triazol-3-yl)-1-(5-chloropyrimidin-2-yl)-1-methoxypropane-2-sulfonamide], the EC50 was 49 nM.
With COc1cccc(-c2nnc(NS(=O)(=O)[C@@H](C)[C@H](C)c3ncc(Cl)cn3)n2[C@@H](C)c2ccno2)n1 (single isomer, unassigned) [Example 214.0, (2S,3R)-3-(5-chloro-2-pyrimidinyl)-N-(5-(6-methoxy-2-pyridinyl)-4-((1S)-1-(1,2-oxazol-5-yl)ethyl)-4H-1,2,4-triazol-3-yl)-2-butanesulfonamide or (2S,3R)-3-(5-chloro-2-pyrimidinyl)-N-(5-(6-methoxy-2-pyridinyl)-4-((1R)-1-(1,2-oxazol-5-yl)ethyl)-4H-1,2,4-triazol-3-yl)-2-butanesulfonamide] the EC50 was 2.9 nM.
COc1cccc(-c2nnc(NS(=O)(=O)[C@@H](C)[C@H](OC)c3ncc(Cl)cn3)n2[C@@H](C)c2ncn(C)n2)n1 (single isomer, unassigned) [Example 235.0, (1R,2S)-1-(5-chloro-2-pyrimidinyl)-1-methoxy-N-(5-(6-methoxy-2-pyridinyl)-4-((1S)-1-(1-methyl-1H-1,2,4-triazol-3-yl)ethyl)-4H-1,2,4-triazol-3-yl)-2-propanesulfonamide or (1R,2S)-1-(5-chloro-2-pyrimidinyl)-1-methoxy-N-(5-(6-methoxy-2-pyridinyl)-4-((1R)-1-(1-methyl-1H-1,2,4-triazol-3-yl)ethyl)-4H-1,2,4-triazol-3-yl)-2-propanesulfonamide] gave an EC50 of 100 nM.
Compound COc1cccc(-c2nnc(NS(=O)(=O)[C@@H](C)[C@H](C)c3ncc(Cl)cn3)n2[C@@H](C)c2ccon2)n1 (racemic) [Example 268.0, (2S,3R)-3-(5-chloropyrimidin-2-yl)-N-(4-((R)-1-(isoxazol-3-yl)ethyl)-5-(6-methoxypyridin-2-yl)-4H-1,2,4-triazol-3-yl)butane-2-sulfonamide or (2S,3R)-3-(5-chloropyrimidin-2-yl)-N-(4-((S)-1-(isoxazol-3-yl)ethyl)-5-(6-methoxypyridin-2-yl)-4H-1,2,4-triazol-3-yl)butane-2-sulfonamide] has an EC50 of 2.7 nM.
In the case of COc1cccc(-c2nnc(NS(=O)(=O)[C@@H](C)[C@H](OC)c3ncc(Cl)cn3)n2C2CCCC2)n1 [Example 183.0, (1R,2S)-1-(5-chloro-2-pyrimidinyl)-N-(4-cyclopentyl-5-(6-methoxy-2-pyridinyl)-4H-1,2,4-triazol-3-yl)-1-methoxy-2-propanesulfonamide], the EC50 is reported as 4.8 nM.
With CCc1noc(C)c1Cn1c(NS(=O)(=O)[C@@H](C)[C@H](OC)c2ncc(Cl)cn2)nnc1-c1cccc(OC)n1 [Example 192.0, (1R,2S)-1-(5-chloro-2-pyrimidinyl)-N-(4-((3-ethyl-5-methyl-1,2-oxazol-4-yl)methyl)-5-(6-methoxy-2-pyridinyl)-4H-1,2,4-triazol-3-yl)-1-methoxy-2-propanesulfonamide] the EC50 was 260 nM.
COc1cccc(-c2nnc(NS(=O)(=O)[C@@H](C)[C@H](OC)c3ncc(Cl)cn3)n2[C@H](C)c2cccnc2)n1 (single isomer, unassigned) [Example 351.0, (1R,2S)-1-(5-chloropyrimidin-2-yl)-1-methoxy-N-(5-(6-methoxypyridin-2-yl)-4-((R)-1-(pyridin-3-yl)ethyl)-4H-1,2,4-triazol-3-yl)propane-2-sulfonamide or (1R,2S)-1-(5-chloropyrimidin-2-yl)-1-methoxy-N-(5-(6-methoxypyridin-2-yl)-4-((S)-1-(pyridin-3-yl)ethyl)-4H-1,2,4-triazol-3-yl)propane-2-sulfonamide] gave an EC50 of 0.36 nM.
For CC[C@@H](c1c(C)noc1C)n1c(NS(=O)(=O)[C@@H](C)[C@H](OC)c2ncc(Cl)cn2)nnc1-c1cccc(OC)n1 (single isomer, unassigned) [Example 218.0, (1R,2S)-1-(5-chloro-2-pyrimidinyl)-N-(4-((1S)-1-(3,5-dimethyl-1,2-oxazol-4-yl)propyl)-5-(6-methoxy-2-pyridinyl)-4H-1,2,4-triazol-3-yl)-1-methoxy-2-propanesulfonamide or (1R,2S)-1-(5-chloro-2-pyrimidinyl)-N-(4-((1S)-1-(3,5-dimethyl-1,2-oxazol-4-yl)propyl)-5-(6-methoxy-2-pyridinyl)-4H-1,2,4-triazol-3-yl)-1-methoxy-2-propanesulfonamide], the EC50 was 3.7 nM.
COc1cccc(-c2nnc(NS(=O)(=O)[C@@H](C)[C@H](OC)c3cnc(C)cn3)n2C2(C3CC3)CC2)n1 [Example 109.0] was tested, and the EC50 was 9.6 nM.
For COc1cccc(-c2nnc(NS(=O)(=O)[C@@H](C)[C@H](C)c3ncc(Cl)cn3)n2[C@@H](C)c2nc(C)no2)n1 (single isomer, unassigned) [Example 247.0, (2S,3R)-3-(5-chloro-2-pyrimidinyl)-N-(5-(6-methoxy-2-pyridinyl)-4-((1R)-1-(3-methyl-1,2,4-oxadiazol-5-yl)ethyl)-4H-1,2,4-triazol-3-yl)-2-butanesulfonamide or (2S,3R)-3-(5-chloro-2-pyrimidinyl)-N-(5-(6-methoxy-2-pyridinyl)-4-((1S)-1-(3-methyl-1,2,4-oxadiazol-5-yl)ethyl)-4H-1,2,4-triazol-3-yl)-2-butanesulfonamide], the EC50 was 5.3 nM.
Work on COc1cccc(-c2nnc(NS(=O)(=O)[C@@H](C)[C@@H](OC(C)C)c3ncc(C)cn3)n2[C@@H](C)[C@H]2CCCO2)n1 (single isomer, unassigned) [Example 275.0] yielded an EC50 of 18 nM.
